# PubChem BioAssay (NCI)
#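 Values below derive from 48-hour exposures of cells grown in 96-well plates, with endpoints linearly interpolated between the two concentrations bracketing the appropriate inhibition level. Abbreviation: GI50, concentration required for 50% inhibition of growth. TGI denotes the concentration required for complete inhibition of growth.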
# What was measured:
# Assay in all cases: NCI-60 cell line screen, 48 h
# SF-295 CNS = tested on: SF-295 CNS
# SF-268 CNS = tested on: SF-268 CNS
# BT-549 breast = tested on: BT-549 breast
# OVCAR-5 ovarian = tested on: OVCAR-5 ovarian
# SK-MEL-28 melanoma = tested on: SK-MEL-28 melanoma
# NCI/ADR-RES ovarian = tested on: NCI/ADR-RES ovarian
# SN12C renal = tested on: SN12C renal
# CCRF-CEM leukemia = tested on: CCRF-CEM leukemia
# RPMI-8226 leukemia = tested on: RPMI-8226 leukemia
# HCC-2998 colon = tested on: HCC-2998 colon
# 786-0 renal = tested on: 786-0 renal
# ACHN renal = tested on: ACHN renal
# HT29 colon = tested on: HT29 colon
# M14 melanoma = tested on: M14 melanoma
# TK-10 renal = tested on: TK-10 renal
# SNB-75 CNS = tested on: SNB-75 CNS
# NCI-H460 lung = tested on: NCI-H460 lung
# MALME-3M melanoma = tested on: MALME-3M melanoma
# SK-MEL-2 melanoma = tested on: SK-MEL-2 melanoma
# MDA-MB-435 = tested on: MDA-MB-435
# A549 NSCLC = tested on: A549 NSCLC
# OVCAR-8 ovarian = tested on: OVCAR-8 ovarian
# HCT-116 colon = tested on: HCT-116 colon
# KM12 colon = tested on: KM12 colon
# UACC-62 melanoma = tested on: UACC-62 melanoma
# SK-MEL-5 melanoma = tested on: SK-MEL-5 melanoma
# NCI-H226 lung = tested on: NCI-H226 lung
# COLO 205 colon = tested on: COLO 205 colon
# SK-OV-3 ovarian = tested on: SK-OV-3 ovarian
# OVCAR-4 ovarian = tested on: OVCAR-4 ovarian
# UO-31 renal = tested on: UO-31 renal
# HOP-92 NSCLC = tested on: HOP-92 NSCLC
# OVCAR-3 ovarian = tested on: OVCAR-3 ovarian
# MOLT-4 leukemia = tested on: MOLT-4 leukemia
# HL-60(TB) leukemia = tested on: HL-60(TB) leukemia
# HOP-62 NSCLC = tested on: HOP-62 NSCLC
# IGROV1 ovarian = tested on: IGROV1 ovarian
# PC-3 prostate = tested on: PC-3 prostate
# LOX IMVI melanoma = tested on: LOX IMVI melanoma
# SW-620 colon = tested on: SW-620 colon
# HS 578T breast = tested on: HS 578T breast
# MCF7 breast = tested on: MCF7 breast
# T-47D breast = tested on: T-47D breast
# HCT-15 colon = tested on: HCT-15 colon
# K-562 leukemia = tested on: K-562 leukemia
# SR leukemia = tested on: SR leukemia
# CAKI-1 renal = tested on: CAKI-1 renal
# SF-539 CNS = tested on: SF-539 CNS
# MDA-MB-231 breast = tested on: MDA-MB-231 breast
# EKVX NSCLC = tested on: EKVX NSCLC
# UACC-257 melanoma = tested on: UACC-257 melanoma
# RXF 393 renal = tested on: RXF 393 renal
# DU-145 prostate = tested on: DU-145 prostate
# A498 renal = tested on: A498 renal
# SNB-19 CNS = tested on: SNB-19 CNS
# U251 CNS = tested on: U251 CNS
# NCI-H23 lung = tested on: NCI-H23 lung
smiles,measurement,setting,value
N#C/C(=N\Nc1ccc(F)cc1)C(=O)Nc1cc(-c2ccccc2)nn1-c1ccccc1,GI50,SF-295 CNS,1.66 µM
same,TGI,SF-295 CNS,5.75 µM
same,GI50,SF-268 CNS,2.37 µM
same,TGI,SF-268 CNS,25.9 µM
same,GI50,BT-549 breast,2.11 µM
same,TGI,BT-549 breast,11.2 µM
same,GI50,OVCAR-5 ovarian,3.52 µM
same,TGI,OVCAR-5 ovarian,17.2 µM
same,GI50,SK-MEL-28 melanoma,3.35 µM
same,TGI,SK-MEL-28 melanoma,77.2 µM
same,GI50,NCI/ADR-RES ovarian,2.85 µM
same,TGI,NCI/ADR-RES ovarian,12.1 µM
same,GI50,SN12C renal,1.83 µM
same,TGI,SN12C renal,8.45 µM
same,GI50,CCRF-CEM leukemia,1.21 µM
same,TGI,CCRF-CEM leukemia,9.31 µM
same,GI50,RPMI-8226 leukemia,0.75 µM
same,TGI,RPMI-8226 leukemia,4.48 µM
same,GI50,HCC-2998 colon,3.61 µM
same,TGI,HCC-2998 colon,19.3 µM
same,GI50,786-0 renal,3.41 µM
same,TGI,786-0 renal,14 µM
same,GI50,ACHN renal,2.55 µM
same,TGI,ACHN renal,10.5 µM
same,GI50,HT29 colon,3.07 µM
same,TGI,HT29 colon,11.6 µM
same,GI50,M14 melanoma,2.84 µM
same,TGI,M14 melanoma,> 100 µM
same,GI50,TK-10 renal,3.43 µM
same,TGI,TK-10 renal,16.2 µM
same,GI50,SNB-75 CNS,1.93 µM
same,TGI,SNB-75 CNS,8.45 µM
same,GI50,NCI-H460 lung,2.02 µM
same,TGI,NCI-H460 lung,10.2 µM
same,GI50,MALME-3M melanoma,1.85 µM
same,TGI,MALME-3M melanoma,13.4 µM
same,GI50,SK-MEL-2 melanoma,1.22 µM
same,TGI,SK-MEL-2 melanoma,5.01 µM
same,GI50,MDA-MB-435,2.55 µM
same,TGI,MDA-MB-435,> 100 µM
same,GI50,A549 NSCLC,2.45 µM
same,TGI,A549 NSCLC,15.6 µM
same,GI50,OVCAR-8 ovarian,2.61 µM
same,TGI,OVCAR-8 ovarian,63.8 µM
same,GI50,HCT-116 colon,2.16 µM
same,TGI,HCT-116 colon,11.5 µM
same,GI50,KM12 colon,2.75 µM
same,TGI,KM12 colon,33.4 µM
same,GI50,UACC-62 melanoma,0.853 µM
same,TGI,UACC-62 melanoma,17 µM
same,GI50,SK-MEL-5 melanoma,0.821 µM
same,TGI,SK-MEL-5 melanoma,3.16 µM
same,GI50,NCI-H226 lung,2.84 µM
same,TGI,NCI-H226 lung,13.7 µM
same,GI50,COLO 205 colon,1.82 µM
same,TGI,COLO 205 colon,3.6 µM
same,GI50,SK-OV-3 ovarian,1.61 µM
same,TGI,SK-OV-3 ovarian,6.39 µM
same,GI50,OVCAR-4 ovarian,2.39 µM
same,TGI,OVCAR-4 ovarian,21.8 µM
same,GI50,UO-31 renal,2.5 µM
same,TGI,UO-31 renal,13.4 µM
same,GI50,HOP-92 NSCLC,0.427 µM
same,TGI,HOP-92 NSCLC,3.85 µM
same,GI50,OVCAR-3 ovarian,2.4 µM
same,TGI,OVCAR-3 ovarian,15.6 µM
same,GI50,MOLT-4 leukemia,2.16 µM
same,TGI,MOLT-4 leukemia,9.92 µM
same,GI50,HL-60(TB) leukemia,1.89 µM
same,TGI,HL-60(TB) leukemia,5.43 µM
same,GI50,HOP-62 NSCLC,2.69 µM
same,TGI,HOP-62 NSCLC,11.2 µM
same,GI50,IGROV1 ovarian,3.69 µM
same,TGI,IGROV1 ovarian,18.3 µM
same,GI50,PC-3 prostate,1.77 µM
same,TGI,PC-3 prostate,8.7 µM
same,GI50,LOX IMVI melanoma,4.54 µM
same,TGI,LOX IMVI melanoma,17.7 µM
same,GI50,SW-620 colon,3.16 µM
same,TGI,SW-620 colon,20.4 µM
same,GI50,HS 578T breast,3.39 µM
same,TGI,HS 578T breast,53.8 µM
same,GI50,MCF7 breast,2.11 µM
same,TGI,MCF7 breast,11.4 µM
same,GI50,T-47D breast,1.63 µM
same,TGI,T-47D breast,> 100 µM
same,GI50,HCT-15 colon,2.34 µM
same,TGI,HCT-15 colon,45.4 µM
same,GI50,K-562 leukemia,1.45 µM
same,TGI,K-562 leukemia,12.8 µM
same,GI50,SR leukemia,2.27 µM
same,TGI,SR leukemia,8.74 µM
same,GI50,CAKI-1 renal,1.56 µM
same,TGI,CAKI-1 renal,8.72 µM
same,GI50,SF-539 CNS,3.26 µM
same,TGI,SF-539 CNS,12.8 µM
same,GI50,MDA-MB-231 breast,1.99 µM
same,TGI,MDA-MB-231 breast,5.6 µM
same,GI50,EKVX NSCLC,2.84 µM
same,TGI,EKVX NSCLC,15.3 µM
same,GI50,UACC-257 melanoma,1.54 µM
same,TGI,UACC-257 melanoma,8.69 µM
same,GI50,RXF 393 renal,2.24 µM
same,TGI,RXF 393 renal,7 µM
same,GI50,DU-145 prostate,3.62 µM
same,TGI,DU-145 prostate,20.8 µM
same,GI50,A498 renal,0.141 µM
same,TGI,A498 renal,2.86 µM
same,GI50,SNB-19 CNS,2.99 µM
same,TGI,SNB-19 CNS,13.4 µM
same,GI50,U251 CNS,3.04 µM
same,TGI,U251 CNS,13.2 µM
same,GI50,NCI-H23 lung,1.75 µM
same,TGI,NCI-H23 lung,10.6 µM
